Assay results from patent publication US6630507B1, “Cannabinoids as antioxidants and neuroprotectants” (The United States of America as represented by the …, priority 1998, dated 2003).

Columns and labels:
[1] = J. Pharmacol. Sci. 60:1433-1457 (1971); cited from earlier work
cannabinoid receptor = details: cited from earlier work
[2] = Cyclic voltametry (oxidation potentials); assay type: physicochemical; details: for oxidation (electron donation) potential by cyclic voltametry: scan +0 to 1.8 V, 100 mV per second, acetonitrile; for oxidation profile by cyclic voltametry: data not shown
Method: To investigate whether cannabinoids protect neurons against glutamate damage by reacting with ROS, the antioxidant properties of cannabidiol and other cannabinoids were assessed. Cyclic voltametry, a procedure that measures the ability of a compound to accept or donate electrons under a variable voltage potential, was used to measure the oxidation potentials of several natural and synthetic cannabinoids. These studies were performed with an EG&G Princeton Applied Research potentiostat/galvanostat (Model 273/PAR 270 software, NJ). The working electrode was a glassy carbon disk with a platinum counter electrode and silver/silver chloride reference. Tetraethylammonium chloride in acetonitrile (0.1 M) was used as an electrolyte. Cyclic voltametry scans were done from +0 to 1.8 V at scan rate of 100 mV per second. […] Anandamide, a cannabinoid receptor ligand without a cannabinoid like structure, was used as a non-responsive control. Each experiment was repeated twice with essentially the same results.

NMDA receptor = details: cited from earlier work
[3] = system: neurons (AMPA/kainate receptor mediated toxicity); assay: AMPA and kainate receptor mediated toxicity in cultured neurons (LDH release); assay type: cell-based, Wistar rat; details: for attenuation of glutamate toxicity, comparison of antioxidants: 100 μM glutamate, equimolar 5 μM antioxidant (FIG. 5B)
Method: (§1) Primary neuronal cultures were prepared according to the method of Ventra et al. (J. Neurochem. 66:1752-1761, 1996). Fetuses were extracted by Cesarian section from a 17 day pregnant Wistar rat, and the feral brains were placed into phosphate buffered saline. The cortices were then dissected out, cut into small pieces and incubated with papain for nine minutes at 37° C. After this time the tissue was dissociated by passage through a fire polished Pasteur pipette, and the resultant cell suspension separated by centrifugation over a gradient consisting of 10 mg/ml bovine serum albumin and 10 mg/ml ovomucoid (a trypsin inhibitor) in Earls buffered salt solution. The pellet was then re-suspended in high glucose, phenol red free Dulbeco's modified Eagles medium containing 10% fetal bovine serum, 2 mM glutamine, 100 IU penicillin, and 100 μg/ml streptomycin (DMEM). Cells were counted, tested for vitality using the trypan blue exclusion test and seeded onto poly-D-lysine coated 24 multiwell plates. After 96 hours, 10 μM fluoro-deoxyuridine and 10 μM uridine were added to block glial cell growth.
Astrocyte conditioned DMEM was used throughout the AMPA/kainate toxicity procedure and following glutamate exposure in the NMDAr mediated toxicity protocol. Media was conditioned by 24 hour treatment over a confluent layer of type I astrocytes, prepared from two day old Wistar rat pups. Cortices were dissected, cut into small pieces, and enzymatically digested with 0.25% trypsin. Tissue was then dissociated by passage through a fire polished Pasteur pipette and the cell suspension plated into untreated 75 cm^2 T-flasks. After 24 hours the media was replaced and unattached cells removed. Once astrocytes achieved confluence, cells were divided into four flasks. Media for experiments was conditioned by a 24 hour exposure to these astrocytes, after which time it was frozen at −20° C. until use. Astrocyte cultures were used to condition DMEM for no longer than two months.
To examine AMPA and kainate receptor mediated toxicity, neurons were cultured for 7-13 days, then exposed to 100 μM glutamate and 50 μM cyclothiazide (used to prevent AMPA receptor desensitization). […] Specific AMPA and kainate receptor ligands were also used to separately examine the effects of cannabinoids on AMPA and kainate receptor mediated events. Fluorowillardiine (1.5 μM) was the AMPA agonist and 4-methyl glutamate (10 μM) was the kainate agonist used to investigate receptor mediated toxicity. When specifically examining kainate receptor activity, cyclothiazide was replaced with 0.15 mg/ml Concanavalin-A.

[4] = system: cultured neurons (NMDAr mediated toxicity); assay: NMDA mediated toxicity in cultured neurons (LDH release); assay type: cell-based, Wistar rat; details: 0.5 μg/ml, administered both during and post ischemia (FIG. 8)
Method: as §1
To examine NMDAr mediated toxicity, cultured neurons (cultured for 14-18 days) were exposed to 250 μM glutamate for 10 minutes in a magnesium free saline solution. […]

[5] = Iron catalyzed dihydrorhodamine oxidation (Fenton reaction); details: 50 μM dihydrorhodamine, 300 μM t-butyl hydroperoxide, 0.5 μM iron, 5 minutes

For `CCCCCCC(C)(C)c1cc(O)c2c(c1)OC(C)(C)[C@@H]1CC=C(CO)C[C@@H]21` [HU-210, 1,1 dimethylheptyl (DMH) homolog of [3R,4R]-7-hydroxy-Δ^6THC], the “side effects in subjects” value [1] is listed as “severe side effects, including fatigue, thirst, headache, and hypotension” and the “cannabinomimetic activity relative to natural Δ^9 THC” value (cannabinoid receptor; U.S. Pat. No. 5,434,295) is listed as “two orders of magnitude greater”.

For `CCCCC/C=C\C/C=C\C/C=C\C/C=C\CCCC(=O)NCCO` [Anandamide, arachidonyl ethanolamide], the “oxidation (electron donation) potential by cyclic voltametry” value (“oxidation (electron donation) potential” for short) [2] was “did not undergo oxidation”.

In the case of `CCCCCCC(C)(C)c1cc(O)c2c(c1)OC(C)(C)C1CCC(=O)CC21` (stereo not shown) [nabilone], the “oxidation profile by cyclic voltametry” value [2] is reported as “oxidation profiles similar to cannabidiol and THC”.

For `CCCCCCC(C)(C)c1cc(O)c2c(c1)OC(C)(C)[C@@H]1CC=C(CO)CC21` (single isomer, unassigned; (-)) [HU-211], the “oxidation (electron donation) potential” value [2] is given as “donated electrons at a similar potential as the antioxidant BHT”, the “affinity to the cannabinoid receptors” value (cannabinoid receptor) is given as “low affinity” and the “activity at the NMDA receptor” value (NMDA receptor) is given as “retains NMDA receptor antagonist neuroprotective activity”.

In the case of `Cc1c(C)c2c(c(C)c1O)CC[C@@](C)(CCC[C@H](C)CCC[C@H](C)CCCC(C)C)O2` [α-tocopherol], the “attenuation of glutamate toxicity, comparison of antioxidants” value [3] is reported as “attenuated glutamate toxicity”.

In the case of `CCCCC/C=C\C[C@H](O)/C=C/C=C\C/C=C\CCCC(=O)O` [Compound 12-HETE, 12-(s)-hydroxy-eicosatetraenoic acid], the “protection of cortical neurons from NMDAr toxicity” value [4] is reported as “best protection”.

For `Cc1cc(C(C)(C)C)c(O)c(C(C)(C)C)c1` [BHT], the “prevention of dihydrorhodamine oxidation” value [5] was “prevented dihydrorhodamine oxidation” and the “attenuation of glutamate toxicity, comparison of antioxidants” value [3] was “attenuated glutamate toxicity”.

In the case of tetrahydrocannabinol [THC], the “prevention of dihydrorhodamine oxidation” value [5] is reported as “prevented dihydrorhodamine oxidation”, the “oxidation (electron donation) potential” value [2] is reported as “donated electrons at a similar potential as the antioxidant BHT” and the “neuroprotection in presence of cannabinoid receptor antagonist SR-141716A” value ([3]; 5 μM compound plus SR-141716A (FIG. 2B)) is reported as “Neither THC nor cannabidiol neuroprotection was affected”. For the same molecule, the “neuroprotection in AMPA/kainate receptor toxicity assays” value ([3]; 100 μM Glu, 5 μM compound (FIG. 2A)) was “similarly protective”.

For `CC(=O)Oc1cc(O[C@H](C)CCCc2ccccc2)cc2c1[C@@H]1C[C@H](O)CC[C@H]1[C@H](C)N2` [levanantrodol], the “oxidation profile by cyclic voltametry” value [2] was “oxidation profiles similar to cannabidiol and THC”.
